Test results: ChEMBL document CHEMBL1201862, “PubChem BioAssay data set” (2004)
Calls of active or inactive are those of the source.

Legend:
[1] = molecular target: RNA-editing ligase 1, mitochondrial (Trypanosoma brucei brucei, UniProt P86926); assay: inhibition of trypanosome RNA editing ligase – biochemical, fluorescence, Trypanosoma brucei, dose response (AID 1117295); assay type: functional
[2] = molecular target: E3 ubiquitin-protein ligase Mdm2 (Homo sapiens, UniProt Q00987); assay: MDM2-luc reporter signal enhancers, multi-concentration potency testing, MDM2 ubiquitin-protein ligase inhibitor program, whole-cell format, luminescence detection, 384-well microplate (AID 1394); assay type: functional;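 further: MDM2 E3 inhibitors raise luminescence so EC50 is for signal enhancement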
[3] = molecular target: T1, Ubiquitin-conjugating enzyme E2 N (Homo sapiens, UniProt P61088); assay type: functional;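 further: Dose-response confirmation in a TR-FRET assay detecting UBC13-driven polyubiquitin chain formation, inhibition measured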
T1 sequence (P61088 whole entry): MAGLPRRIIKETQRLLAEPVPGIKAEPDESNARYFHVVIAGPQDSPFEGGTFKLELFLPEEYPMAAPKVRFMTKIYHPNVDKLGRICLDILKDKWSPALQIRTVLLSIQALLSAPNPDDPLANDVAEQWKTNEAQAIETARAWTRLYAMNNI

[4] = molecular target: T2, Short transient receptor potential channel 4 (Mus musculus, UniProt Q9QUQ5); assay: calcium entry via TRPC4 opening agents – cell-based, HEK293 TRPC4/mu-opioid, Fluo-4 calcium, dose response (AID 434937); assay type: functional
T2 sequence (Q9QUQ5 whole entry): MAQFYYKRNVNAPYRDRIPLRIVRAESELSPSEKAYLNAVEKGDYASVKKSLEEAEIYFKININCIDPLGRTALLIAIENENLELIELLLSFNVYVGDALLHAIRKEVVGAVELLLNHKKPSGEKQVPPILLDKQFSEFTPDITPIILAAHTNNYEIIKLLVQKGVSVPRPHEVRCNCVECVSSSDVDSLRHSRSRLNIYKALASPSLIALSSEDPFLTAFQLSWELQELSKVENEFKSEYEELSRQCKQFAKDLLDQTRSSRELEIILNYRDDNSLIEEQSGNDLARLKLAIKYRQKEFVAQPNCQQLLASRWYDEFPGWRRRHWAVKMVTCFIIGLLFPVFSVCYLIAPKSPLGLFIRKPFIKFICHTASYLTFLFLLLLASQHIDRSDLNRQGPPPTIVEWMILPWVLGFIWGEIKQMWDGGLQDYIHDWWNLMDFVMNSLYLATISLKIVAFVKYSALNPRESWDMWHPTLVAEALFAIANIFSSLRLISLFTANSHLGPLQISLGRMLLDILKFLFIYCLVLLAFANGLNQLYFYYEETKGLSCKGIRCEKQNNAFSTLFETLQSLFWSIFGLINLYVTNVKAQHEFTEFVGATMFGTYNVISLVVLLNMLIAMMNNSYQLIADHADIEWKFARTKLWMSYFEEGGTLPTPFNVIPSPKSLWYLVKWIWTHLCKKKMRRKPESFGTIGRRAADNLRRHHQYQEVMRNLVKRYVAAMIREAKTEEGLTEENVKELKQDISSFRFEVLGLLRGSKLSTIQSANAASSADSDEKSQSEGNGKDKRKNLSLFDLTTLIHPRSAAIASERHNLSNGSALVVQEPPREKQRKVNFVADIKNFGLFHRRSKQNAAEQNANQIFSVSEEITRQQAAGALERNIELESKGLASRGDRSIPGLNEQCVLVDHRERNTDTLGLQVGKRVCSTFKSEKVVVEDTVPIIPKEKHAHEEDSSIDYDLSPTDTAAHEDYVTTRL

Estrogen receptor beta [5] = molecular target: T3, Estrogen receptor beta (Homo sapiens, UniProt Q92731);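 further: recombinant ER-beta bound to coactivator SRC1 peptide in presence of estradiol agonist; inhibitors block coactivator peptide binding and lower the FRET signal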
Estrogen receptor beta [6] = molecular target: T3, Estrogen receptor beta; assay: blockers of SRC-3 recruitment to ERβ – biochemical, ELISA, streptavidin-HRP readout, orthogonal assay, confirmation (AID 1060)
Protein skinhead-1 = molecular target: T4, Protein skinhead-1 (Caenorhabditis elegans, UniProt P34707); assay type: functional
T4 sequence (P34707 whole entry): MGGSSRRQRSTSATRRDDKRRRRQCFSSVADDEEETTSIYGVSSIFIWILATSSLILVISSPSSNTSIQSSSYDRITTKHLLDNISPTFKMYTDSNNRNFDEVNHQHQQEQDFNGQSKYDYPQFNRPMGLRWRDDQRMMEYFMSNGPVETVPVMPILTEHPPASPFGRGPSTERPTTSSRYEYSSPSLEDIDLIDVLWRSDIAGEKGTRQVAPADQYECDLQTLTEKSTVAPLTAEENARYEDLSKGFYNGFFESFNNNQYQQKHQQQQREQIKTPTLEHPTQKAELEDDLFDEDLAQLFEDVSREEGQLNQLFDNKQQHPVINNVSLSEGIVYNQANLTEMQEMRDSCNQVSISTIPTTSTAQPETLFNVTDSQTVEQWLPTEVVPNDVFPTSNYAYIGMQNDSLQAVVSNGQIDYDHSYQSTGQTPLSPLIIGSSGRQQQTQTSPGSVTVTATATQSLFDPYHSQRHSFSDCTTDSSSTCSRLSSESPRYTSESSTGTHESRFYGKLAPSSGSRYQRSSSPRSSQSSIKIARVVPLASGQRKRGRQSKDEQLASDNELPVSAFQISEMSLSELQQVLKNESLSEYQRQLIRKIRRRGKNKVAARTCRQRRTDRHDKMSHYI

[7] = A549 cell cytotoxicity, dose response, cytotoxicity control, plate reader, cherry-pick, antagonist series (AID 743412); assay type: functional, cell-based
[8] = toxicity toward HepG2 liver cells – cell-based, plate reader, cherry-pick, antagonist series, cytotoxicity control, dose response (AID 743416); assay type: functional
[9] = blockers of bursicon-stimulated LGR2 cAMP reporter – cell-based, HEK293, CRE-luciferase reporter, cherry pick, set 2, dose response (AID 743343); assay type: functional;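 further: transfected cells were stimulated with diluted bursicon conditioned medium after compound addition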
[10] = blockade of melanocortin 4 receptor signaling – cell-based, plate reader, cherry pick, counter-screen for LGR2 antagonist project, dose response (AID 743444); assay type: functional;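 further: transfected HEK 293 cells stimulated with alpha-MSH peptide; potency of inhibitors of the alpha-MSH evoked signal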
[11] = viability loss in HEK293 cells – cell-based, plate reader, cherry-picked samples, cytotoxicity control, dose response (AID 743446); assay type: functional
[12] = growth inhibition of yeast DHODH-expressing 3D7 parasites – SYBR Green, dry powder samples, dose response (AID 1159570); assay type: functional, cell-based;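 further: parasite growth measured after 72 hours of compound exposure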
[13] = toxicity to human HepG2 hepatoma cells – cell-based, plate reader, dry powder samples, cytotoxicity control, dose response (AID 1159569); assay type: functional;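 further: inhibitor potency with signal falling toward the positive control level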
[14] = P. falciparum Dd2 growth inhibitors, dose response, SYBR Green, cherry-picked samples (AID 1159567); assay type: functional, cell-based
[15] = Dd2 malaria parasite growth inhibition potency – SYBR Green, dry powder samples, dose response (AID 1159566); assay type: functional, cell-based;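 further: potency for growth inhibition with lower SYBR green DNA signal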
[16] = growth inhibition of PfATP4-mutant resistant parasites – NITD609-resistant line, SYBR Green, dry powder, dose response (AID 1159571); assay type: functional, cell-based;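 further: parasites synchronized at ring stage by sorbitol before testing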
[17] = molecular target: NAD-dependent protein deacylase sirtuin-5, mitochondrial (Homo sapiens, UniProt Q9NXA8); assay: sirtuin-5 deacylation blockers, concentration series – biochemical, fluorescence imaging, cherry-pick, set 5, dose response (AID 720591);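 further: desuccinylation of succinyl peptide AMC substrate read as fluorescence after trypsin release; potency of inhibitors that lower fluorescence and may act on trypsin instead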
[18] = molecular target: T5, Histone-lysine N-methyltransferase NSD2 (Homo sapiens, UniProt O96028); assay type: biochemical
T5 sequence (O96028 whole entry): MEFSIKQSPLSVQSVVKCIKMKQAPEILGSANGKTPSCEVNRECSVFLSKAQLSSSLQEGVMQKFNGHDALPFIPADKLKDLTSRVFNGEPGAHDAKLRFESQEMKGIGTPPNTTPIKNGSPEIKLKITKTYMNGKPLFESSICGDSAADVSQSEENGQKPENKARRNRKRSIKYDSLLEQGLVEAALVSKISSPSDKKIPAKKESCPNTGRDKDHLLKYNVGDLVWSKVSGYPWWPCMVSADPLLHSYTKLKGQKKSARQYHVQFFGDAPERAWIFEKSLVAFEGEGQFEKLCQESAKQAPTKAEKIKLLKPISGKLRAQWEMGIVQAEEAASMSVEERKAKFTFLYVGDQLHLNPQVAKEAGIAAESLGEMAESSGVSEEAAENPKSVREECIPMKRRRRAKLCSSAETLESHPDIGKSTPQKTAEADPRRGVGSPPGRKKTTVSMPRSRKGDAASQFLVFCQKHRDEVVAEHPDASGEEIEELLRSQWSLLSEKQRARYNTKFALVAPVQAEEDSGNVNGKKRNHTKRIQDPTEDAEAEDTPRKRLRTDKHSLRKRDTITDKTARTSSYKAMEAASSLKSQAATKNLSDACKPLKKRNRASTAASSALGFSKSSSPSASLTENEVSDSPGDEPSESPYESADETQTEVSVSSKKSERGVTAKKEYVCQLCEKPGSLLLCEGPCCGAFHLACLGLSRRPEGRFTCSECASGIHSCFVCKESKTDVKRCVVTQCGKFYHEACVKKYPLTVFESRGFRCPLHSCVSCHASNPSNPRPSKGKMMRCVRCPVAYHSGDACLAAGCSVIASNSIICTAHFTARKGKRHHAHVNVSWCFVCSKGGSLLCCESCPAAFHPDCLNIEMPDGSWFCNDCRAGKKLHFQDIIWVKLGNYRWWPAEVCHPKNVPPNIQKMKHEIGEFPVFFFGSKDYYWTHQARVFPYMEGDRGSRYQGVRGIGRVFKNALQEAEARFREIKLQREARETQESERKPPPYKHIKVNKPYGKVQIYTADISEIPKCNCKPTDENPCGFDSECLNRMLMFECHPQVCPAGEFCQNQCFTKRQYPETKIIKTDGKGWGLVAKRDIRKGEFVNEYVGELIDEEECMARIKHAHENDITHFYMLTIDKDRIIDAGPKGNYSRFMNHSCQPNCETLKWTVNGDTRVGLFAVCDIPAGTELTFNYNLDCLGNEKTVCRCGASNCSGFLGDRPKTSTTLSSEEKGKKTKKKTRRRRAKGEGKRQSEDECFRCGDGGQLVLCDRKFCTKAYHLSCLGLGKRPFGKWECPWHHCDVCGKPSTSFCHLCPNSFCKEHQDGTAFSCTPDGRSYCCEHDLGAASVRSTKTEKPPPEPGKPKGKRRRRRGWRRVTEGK

Transthyretin = Transthyretin (Homo sapiens, UniProt P02766); assay: Luminescence-based cell-based high throughput dose response assay to identify activators of Transthyretin (TTR) transcription.; assay type: functional

T3 sequence (Q92731 whole entry): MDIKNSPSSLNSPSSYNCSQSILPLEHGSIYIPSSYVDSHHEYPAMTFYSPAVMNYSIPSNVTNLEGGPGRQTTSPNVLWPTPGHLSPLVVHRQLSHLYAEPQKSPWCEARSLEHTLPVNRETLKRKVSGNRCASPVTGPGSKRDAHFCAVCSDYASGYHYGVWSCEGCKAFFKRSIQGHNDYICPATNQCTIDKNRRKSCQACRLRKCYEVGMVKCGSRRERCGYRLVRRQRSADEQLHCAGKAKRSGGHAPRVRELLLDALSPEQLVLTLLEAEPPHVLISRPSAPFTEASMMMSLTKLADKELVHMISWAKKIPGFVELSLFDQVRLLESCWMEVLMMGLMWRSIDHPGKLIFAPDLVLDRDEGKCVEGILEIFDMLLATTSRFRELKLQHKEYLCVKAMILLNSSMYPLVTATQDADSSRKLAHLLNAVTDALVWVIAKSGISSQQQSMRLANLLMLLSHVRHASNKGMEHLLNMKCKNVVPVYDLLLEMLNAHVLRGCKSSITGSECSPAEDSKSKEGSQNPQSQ
Sequence of NAD-dependent protein deacylase sirtuin-5, mitochondrial (Q9NXA8 whole entry): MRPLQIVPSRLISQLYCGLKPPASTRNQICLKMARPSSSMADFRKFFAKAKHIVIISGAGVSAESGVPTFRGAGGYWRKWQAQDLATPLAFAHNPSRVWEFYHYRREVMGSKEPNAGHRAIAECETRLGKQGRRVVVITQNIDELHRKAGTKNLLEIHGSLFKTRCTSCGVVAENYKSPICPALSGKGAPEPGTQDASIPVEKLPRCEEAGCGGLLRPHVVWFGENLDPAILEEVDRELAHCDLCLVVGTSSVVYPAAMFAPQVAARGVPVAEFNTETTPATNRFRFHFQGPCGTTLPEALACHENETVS
Sequence of RNA-editing ligase 1, mitochondrial (P86926 whole entry): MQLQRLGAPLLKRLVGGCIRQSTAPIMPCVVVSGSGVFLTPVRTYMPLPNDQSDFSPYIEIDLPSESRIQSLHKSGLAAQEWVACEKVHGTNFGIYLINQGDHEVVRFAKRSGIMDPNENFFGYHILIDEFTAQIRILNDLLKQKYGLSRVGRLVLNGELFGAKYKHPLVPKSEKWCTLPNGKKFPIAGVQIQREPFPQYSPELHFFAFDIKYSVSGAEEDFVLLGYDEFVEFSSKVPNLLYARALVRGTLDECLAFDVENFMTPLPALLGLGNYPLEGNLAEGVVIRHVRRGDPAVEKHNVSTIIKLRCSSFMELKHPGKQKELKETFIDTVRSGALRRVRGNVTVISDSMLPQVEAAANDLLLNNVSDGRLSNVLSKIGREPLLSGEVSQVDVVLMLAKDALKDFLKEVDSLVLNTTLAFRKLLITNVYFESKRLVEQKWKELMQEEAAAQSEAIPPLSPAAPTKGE
Sequence of E3 ubiquitin-protein ligase Mdm2 (Q00987 whole entry): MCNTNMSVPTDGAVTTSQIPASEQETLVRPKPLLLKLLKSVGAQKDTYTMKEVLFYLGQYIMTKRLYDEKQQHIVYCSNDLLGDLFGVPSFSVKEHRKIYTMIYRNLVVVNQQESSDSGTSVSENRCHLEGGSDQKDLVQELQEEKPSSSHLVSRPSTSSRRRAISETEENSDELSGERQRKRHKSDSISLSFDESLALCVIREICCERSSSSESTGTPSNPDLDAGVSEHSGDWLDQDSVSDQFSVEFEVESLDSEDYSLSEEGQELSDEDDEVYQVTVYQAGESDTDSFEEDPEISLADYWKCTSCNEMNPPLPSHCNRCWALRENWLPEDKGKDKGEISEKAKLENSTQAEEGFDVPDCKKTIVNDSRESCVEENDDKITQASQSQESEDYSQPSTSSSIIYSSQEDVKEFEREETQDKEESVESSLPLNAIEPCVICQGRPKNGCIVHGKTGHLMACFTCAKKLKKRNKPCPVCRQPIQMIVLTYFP

Question: For `NC(=O)[C@H]1CC2(CC(c3cccc(NC(=O)[C@H]4CCC(=O)N4)c3)=NO2)CN1C(=O)c1ccccc1` (stereo not given in full), which IC50 [1] is on record?
Answer: 19.7 µM (inactive)

Question: With `CC(C)n1cnc2c(N(C)c3ccccc3)nc(N(CCN(C)C)Cc3ccccc3)nc21` as the compound, how does the EC50 [2] read?
Answer: 19.3 µM (not active)

Question: What about the IC50 [3] of the same compound?
Answer: > 20 µM (inactive)

Question: What about the EC50 [4] of the same compound?
Answer: 10.6 µM (active)

Question: For `Nc1c(C(=O)Nc2ccc(F)cc2)sc2nc(-c3ccco3)ccc12`, which IC50 (Estrogen receptor beta [5]) is on record?
Answer: > 50 µM (not active)

Question: What about the IC50 (Estrogen receptor beta [6]) of the same compound?
Answer: > 50 µM (not active)

Question: What about the IC50 (Protein skinhead-1) of the same compound?
Answer: > 100 µM (inactive)

Question: For `N#Cc1ccc(-c2ccc([C@@H]3[C@@H]4CN(C(=O)C5CCC5)C[C@H]3N4)cc2)cc1`, which AC50 [7] is on record?
Answer: 7.74 µM (active)

Question: What about the AC50 [8] of the same compound?
Answer: 22.7 µM (active)

Question: And the AC50 [9]?
Answer: 5.97 µM (active)

Question: What about the AC50 [10] of the same compound?
Answer: 7.86 µM (active)

Question: What about the AC50 [11] of the same compound?
Answer: > 52 µM (inactive)

Question: What about the AC50 [12] of the same compound?
Answer: 1.19 µM (active)

Question: And the AC50 [13]?
Answer: > 100 µM (inactive)

Question: What about the AC50 [14] of the same compound?
Answer: 0.825 µM (active)

Question: What about the AC50 [15] of the same compound?
Answer: 1.04 µM (active)

Question: What about the AC50 [16] of the same compound?
Answer: 1.35 µM (active)

Question: For `COc1ccc(CC(=O)Nc2ccc(S(=O)(=O)N3CCN(C)CC3)cc2)cc1`, which AC50 [17] is on record?
Answer: > 30 µM (inactive)

Question: For `CCCC(=O)NC1=C(N2CC2)C(=O)C(NC(=O)CCC)=C(N2CC2)C1=O`, which AC50 [18] is on record?
Answer: 6.65 µM (active)

Question: And the EC50 (Transthyretin)?
Answer: > 167 µM (inactive)
